The text below walks through data of patent publication US20190185479A1, “BICYCLIC NITROGENATED HETEROCYCLIC COMPOUND” (MITSUBISHI TANABE PHARMA CORPORATION, priority 2016, published 2019).

The target of the experiment is T1, bovine PDE6 (Bos taurus, UniProt P11541+P23439).
T1 construct: PDE6 was purified and isolated from bovine retina (bovine PDE6); from tissue; host or cells: bovine retina
T1 sequence (P11541 2-856 limits assumed): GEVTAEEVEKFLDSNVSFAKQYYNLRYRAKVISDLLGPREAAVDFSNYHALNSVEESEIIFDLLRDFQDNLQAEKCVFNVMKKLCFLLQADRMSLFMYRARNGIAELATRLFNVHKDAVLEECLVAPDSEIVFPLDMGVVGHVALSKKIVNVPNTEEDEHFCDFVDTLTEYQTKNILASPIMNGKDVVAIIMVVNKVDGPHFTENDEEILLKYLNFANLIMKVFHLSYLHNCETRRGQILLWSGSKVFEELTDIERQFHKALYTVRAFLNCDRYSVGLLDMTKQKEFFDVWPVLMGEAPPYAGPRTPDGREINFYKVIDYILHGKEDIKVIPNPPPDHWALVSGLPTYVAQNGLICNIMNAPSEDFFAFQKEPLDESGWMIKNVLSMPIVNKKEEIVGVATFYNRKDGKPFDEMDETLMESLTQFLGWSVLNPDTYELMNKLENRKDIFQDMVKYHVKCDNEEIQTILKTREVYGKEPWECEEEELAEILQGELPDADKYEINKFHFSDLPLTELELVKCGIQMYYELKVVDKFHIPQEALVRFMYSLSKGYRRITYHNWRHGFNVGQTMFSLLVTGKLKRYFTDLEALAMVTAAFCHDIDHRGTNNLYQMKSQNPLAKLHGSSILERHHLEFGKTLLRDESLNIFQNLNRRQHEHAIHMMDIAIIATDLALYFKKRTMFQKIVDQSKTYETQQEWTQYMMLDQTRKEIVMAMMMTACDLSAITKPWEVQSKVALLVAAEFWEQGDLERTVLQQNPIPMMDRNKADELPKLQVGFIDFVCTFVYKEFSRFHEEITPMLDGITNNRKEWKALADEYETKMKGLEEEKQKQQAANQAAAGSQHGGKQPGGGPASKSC
T1 sequence (P23439 2-850 limits assumed): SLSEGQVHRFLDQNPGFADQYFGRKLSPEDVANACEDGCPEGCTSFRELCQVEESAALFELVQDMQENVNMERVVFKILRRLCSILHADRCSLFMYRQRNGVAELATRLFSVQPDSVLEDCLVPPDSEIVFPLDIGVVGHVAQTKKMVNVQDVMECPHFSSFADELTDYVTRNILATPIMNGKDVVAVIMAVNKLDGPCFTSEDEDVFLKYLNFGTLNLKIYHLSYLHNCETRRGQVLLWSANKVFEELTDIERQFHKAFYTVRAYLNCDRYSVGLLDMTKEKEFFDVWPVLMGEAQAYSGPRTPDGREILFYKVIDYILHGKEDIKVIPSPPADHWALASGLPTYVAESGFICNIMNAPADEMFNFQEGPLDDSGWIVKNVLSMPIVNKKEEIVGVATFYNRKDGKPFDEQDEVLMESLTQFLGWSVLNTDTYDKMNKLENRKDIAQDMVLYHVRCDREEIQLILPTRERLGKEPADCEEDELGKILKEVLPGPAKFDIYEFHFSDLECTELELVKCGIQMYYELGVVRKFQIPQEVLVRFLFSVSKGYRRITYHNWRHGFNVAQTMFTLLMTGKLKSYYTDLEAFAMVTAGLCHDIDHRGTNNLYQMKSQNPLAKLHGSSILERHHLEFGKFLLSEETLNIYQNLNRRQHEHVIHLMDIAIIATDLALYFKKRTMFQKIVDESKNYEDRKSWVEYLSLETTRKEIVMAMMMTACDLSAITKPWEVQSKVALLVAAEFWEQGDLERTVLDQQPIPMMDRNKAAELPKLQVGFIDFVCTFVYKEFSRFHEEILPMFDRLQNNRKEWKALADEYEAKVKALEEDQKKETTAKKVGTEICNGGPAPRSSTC
Put plainly: PDE7 selectivity test (Ki value), Experimental Example 2: bovine PDE6. It counts as biochemical. As to conditions: Ki from IC50 by Cheng-Prusoff, read-out: PDE inhibition constant Ki, PDE6. As to the method: hPDE1A, hPDE2A, hPDE3A, hPDE4D, hPDE5A, and hPDE8B were purchased from SB Drug Discovery. hPDE7B was isolated by the same method as [Method for preparing samples 1], and hPDE9A, hPDE10A, and hPDE11A were isolated by the same method as hPDE7B, i.e., isolated from COS-7 cells transfected with plasmids encoding each PDE. PDE6 was purified and isolated from bovine retina (bovine PDE6).
Prior to the calculation of Ki value, Km value of each PDE against cAMP or cGMP was calculated. Each PDE diluted with an assay buffer so that it would have an appropriate enzyme activity, and six or more concentrations of cAMP or cGMP were reacted at room temperature for 60 minutes. Regarding PDE using cAMP as a substrate, PDELight (trademark) HTS cAMP phosphodiesterase Kit (Lonza) was used to measure a degradation product, 5′-AMP. Also, regarding PDE using cGMP as a substrate, […] of perchloric acid was added to the mixture to stop the reaction, and the resulting mixture was subjected to LC-MS/MS to measure the residual cGMP concentration. The amount of degraded substrate in each substrate concentration was calculated, the concentration of the added substrate was plotted on the horizontal axis, the amount of degraded substrate was plotted on the vertical axis, and Km value was calculated by non-linear regression on the basis of Michaelis-Menten equation. Km value (substrate) of each PDE was hPDE1A: 4.3 (cGMP), hPDE2A: 36 (cAMP), hPDE3A: 0.11 (cAMP), hPDE4D: 0.90 (cAMP), hPDE5A: 3.9 (cGMP), bovine PDE6:9.8 (cGMP), hPDE7B: 0.015 (cAMP), hPDE8B: 0.63 (cAMP), hPDE9A: 0.0037 (cGMP), hPDE10A: 0.051 (cAMP), and hPDE11A: 1.4 (cAMP) μmol/L, respectively.
Next, PDE inhibition assay of a compound was carried out using each PDE. The PDE inhibition assay was basically carried out by the same enzyme reaction method as [Assay procedure 1], and the degraded amount of cAMP or cGMP was measured by the same method as [Assay procedure 2]. In the assay, a concentration approximated to Km value of each PDE against cAMP or cGMP was used as a substrate concentration. Meanwhile, regarding hPDE5A, hPDE8B, and hPDE9A, IMAP (trademark) FP Phosphodiesterase Evaluation Assay Kit (Molecular Devices) was used to measure the degradation of FAM-cAMP or FAM-cGMP by fluorescence depolarization technique.
Each compound was evaluated at six or more concentrations with common ratio 10. Each inhibition rate was calculated according to <Method for data calculation 1>, and then each IC50 value was calculated by sigmoid regression. The resulting IC50 value was used in the following Cheng-Prusoff equation to calculate each Ki value. Ki=IC50/(1+[S]/Km), wherein [S] represents a substrate concentration used
What is called Ki is the dissociation constant of the complex between target and ligand, obtained from inhibition or displacement. On to `CC1CCCCC1n1nnc2c(N)ncnc21` (single isomer, unassigned) [Example 191, 3-(cis-2-methylcyclohexyl)-3H-[1,2,3]triazolo[4,5-d]pyrimidin-7-amine], for which the Ki was above 49 µM. The result for `Nc1ncnc2c1nnn2C1CCCCC1` [Example 3, 3-cyclohexyl-3H-[1,2,3]triazolo[4,5-d]pyrimidin-7-amine] reads above 49 µM. In the case of `Cc1nc(N)c2nnn(C3CCCCC3)c2n1` [Example 4], the Ki was above 4.9 µM. For the compound `Nc1nccn2c(C3CCCCC3)nnc12` [Example 141, 3-cyclohexyl[1,2,4]triazolo[4,3-a]pyrazin-8-amine], the Ki is above 4.9 µM. As for `C[C@@H]1CCC[C@H](c2nnc3c(N)nccn23)C1` [Example 204, 3-[(1S,3R)-3-methylcyclohexyl][1,2,4]triazolo[4,3-a]pyrazin-8-amine], the figure is above 49 µM.
